The source of these data is patent publication US20220089568A1 (Janssen Biotech, Inc., priority 2019, published 2022).

By pEC50 is commonly meant −log10 of the EC50, conventionally taken in molar units.

In one assay the target is T1, human DHODH (Homo sapiens, UniProt Q02127).
T1 construct: purchased Proteros PR-0044
The assay can be described thus: DHODH Enzymatic Assay. Format: biochemical. To be noted: purified human DHODH; DCIP absorbance, end-point mode. The procedure:
To detect DHODH enzyme activities, dichloroindophenol (DCIP) is added as the final electron acceptor in the assay. DCIP can accept electrons from the reduced coenzyme Q generated in the assay, or from dihydroorotate (DHO) via FMN by binding presumably to the ubiquinone pocket. […] The assay buffer contained […], pH 7.5, 150 mM NaCl, 0.5 mM EDTA, and 0.1% Triton X-100 in MilliQ water. Substrate consisting of 20 mM DHO, 5 mM CoQ6, and 1 mM DCIP in assay buffer, initiates the reaction. […] Absorbance measurements were obtained using the BMG Phera Star plate-reading spectrophotomer. Purified human DHODH was purchased from Proteros (cat. No. PR-0044). Chemicals were purchased from Sigma-Aldrich, Teknova, and Avanti Polar Lipids. Liquid handling was performed using Labcyte Echo and Formulatrix Tempest.

The subject of the next assay is MOLM-13 cells. Put plainly: MOLM-13 Cellular Assay. Type of assay: cell-based. To be noted: Homo sapiens, 72 hours exposure, cell viability by CellTiter-Glo. The procedure: The day prior to assay set-up, cells were pelleted, resuspended in fresh media, counted, and cells were plated at 0.4×10^6 cell/mL in a T150 flask. […] Cells were exposed to different concentrations of test compounds at 37° C., 5% CO2 for 72 hours immediately after seeding.
A general note: Cellular ATP, detected with luciferase, serves as a proxy for viable cell number.

pEC50: −log10 of the molar value.

T1 sequence (Q02127 whole entry): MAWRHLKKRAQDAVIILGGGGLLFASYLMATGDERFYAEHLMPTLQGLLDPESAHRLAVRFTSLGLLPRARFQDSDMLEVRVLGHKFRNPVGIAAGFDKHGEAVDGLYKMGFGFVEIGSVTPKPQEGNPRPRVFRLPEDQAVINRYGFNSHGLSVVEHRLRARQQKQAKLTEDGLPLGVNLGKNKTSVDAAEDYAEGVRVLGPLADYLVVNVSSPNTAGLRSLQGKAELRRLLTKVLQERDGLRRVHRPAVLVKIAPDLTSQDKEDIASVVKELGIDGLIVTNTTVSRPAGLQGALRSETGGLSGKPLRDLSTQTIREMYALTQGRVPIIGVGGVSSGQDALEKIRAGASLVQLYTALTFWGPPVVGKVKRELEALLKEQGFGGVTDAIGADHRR

With `CCn1c(CO)nn(-c2nc(OC3CC(F)(F)C3(F)F)c(C(=O)Nc3c(F)cccc3Cl)cc2F)c1=O` (racemic) [Example 8, Racemic-N-(2-Chloro-6-fluorophenyl)-6-(4-ethyl-3-(hydroxymethyl)-5-oxo-4,5-dihydro-1H-1,2,4-triazol-1-yl)-5-fluoro-2-(2,2,3,3-tetrafluorocyclobutoxy)nicotinamide], the negative-log EC50 (pEC50) at human DHODH is 7.66; in the assay with MOLM-13 cells it was 7.80.

In the case of `CCn1c(CO)nn(-c2nc(OC3CCOC3)c(C(=O)Nc3c(F)cccc3Cl)cc2F)c1=O` (racemic) [Example 9, Racemic-N-(2-Chloro-6-fluorophenyl)-6-(4-ethyl-3-(hydroxymethyl)-5-oxo-4,5-dihydro-1H-1,2,4-triazol-1-yl)-5-fluoro-2-((tetrahydrofuran-3-yl)oxy)nicotinamide], the negative logarithm of the EC50 (pEC50) on human DHODH is 7.50; in the assay with MOLM-13 cells it was 7.73.

In the case of `CCn1c(C(C)O)nn(-c2nc(O[C@@H](C)C(F)(F)F)c(C(=O)Nc3c(C)n[nH]c3C(F)(F)F)cc2F)c1=O` (mixture of isomers) [Example 127, (Racemic)-6-[4-Ethyl-3-(1-hydroxyethyl)-5-oxo-1,2,4-triazol-1-yl]-5-fluoro-N-[3-methyl-5-(trifluoromethyl)-1H-pyrazol-4-yl]-2-(2,2,2-trifluoro-1-methyl-ethoxy)pyridine-3-carboxamide], the pEC50 on human DHODH is 8.37; in the assay with MOLM-13 cells, 9.03.

With `CCn1c(CO)nn(-c2nc(O[C@@H](C)C(F)(F)F)c(C(=O)Nc3c(F)cccc3Cl)cc2F)c1=O` [Example 1, (S)-N-(2-Chloro-6-fluorophenyl)-6-(4-ethyl-3-(hydroxymethyl)-5-oxo-4,5-dihydro-1H-1,2,4-triazol-1-yl)-5-fluoro-2-((1,1,1-trifluoropropan-2-yl)oxy)nicotinamide], the negative logarithm of the EC50 (pEC50) on human DHODH was 9.63; in the assay on MOLM-13 cells, 9.81.

Take `CCn1c(CO)nn(-c2nc(O[C@@H](C)C(F)(F)F)c(C(=O)Nc3ccccc3F)cc2F)c1=O` [Example 2, (S)-6-(4-Ethyl-3-(hydroxymethyl)-5-oxo-4,5-dihydro-1H-1,2,4-triazol-1-yl)-5-fluoro-N-(2-fluorophenyl)-2-((1,1,1-trifluoropropan-2-yl)oxy)nicotinamide]: the negative-log EC50 (pEC50) was 8.21 at human DHODH and 8.28 in the assay with MOLM-13 cells.

`CCn1c(CF)nn(-c2nc(O[C@@H](C)C(F)(F)F)c(C(=O)Nc3c(F)cccc3Cl)cc2F)c1=O` [Example 3, (S)-N-(2-Chloro-6-fluorophenyl)-6-(4-ethyl-3-(fluoromethyl)-5-oxo-4,5-dihydro-1H-1,2,4-triazol-1-yl)-5-fluoro-2-((1,1,1-trifluoropropan-2-yl)oxy)nicotinamide]: the pEC50 is 9.61 at human DHODH and 10.43 with MOLM-13 cells.

`CCn1c(CO)nn(-c2nc(O[C@@H](C)C(F)(F)F)c(C(=O)Nc3cccnc3Cl)cc2F)c1=O` [Example 4, (S)-N-(2-Chloropyridin-3-yl)-6-(4-ethyl-3-(hydroxymethyl)-5-oxo-4,5-dihydro-1H-1,2,4-triazol-1-yl)-5-fluoro-2-((1,1,1-trifluoropropan-2-yl)oxy)nicotinamide]: the negative-log EC50 (pEC50) at human DHODH is 8.55; with MOLM-13 cells it was 8.19.

As to `CCn1c(CO)nn(-c2nc(O[C@@H](C)C(F)(F)F)c(C(=O)Nc3c(C)ccnc3Cl)cc2F)c1=O` [Example 5, (S)-N-(2-Chloro-4-methylpyridin-3-yl)-6-(4-ethyl-3-(hydroxymethyl)-5-oxo-4,5-dihydro-1H-1,2,4-triazol-1-yl)-5-fluoro-2-((1,1,1-trifluoropropan-2-yl)oxy)nicotinamide], the values for the pEC50 at human DHODH and in the assay with MOLM-13 cells were 8.92 and 8.70, respectively.

As for `CCn1c(CCl)nn(-c2nc(O[C@@H](C)C(F)(F)F)c(C(=O)Nc3c(F)cccc3Cl)cc2F)c1=O` [Example 6, (S)-N-(2-Chloro-6-fluorophenyl)-6-(3-(chloromethyl)-4-ethyl-5-oxo-4,5-dihydro-1H-1,2,4-triazol-1-yl)-5-fluoro-2-((1,1,1-trifluoropropan-2-yl)oxy)nicotinamide], the negative logarithm of the EC50 (pEC50) was 9.43 on human DHODH and 8.83 in the assay with MOLM-13 cells.

Take `CCn1c(CO)nn(-c2nc(OC(C)C)c(C(=O)Nc3c(F)cccc3Cl)cc2F)c1=O` [Example 7, N-(2-Chloro-6-fluorophenyl)-6-(4-ethyl-3-(hydroxymethyl)-5-oxo-4,5-dihydro-1H-1,2,4-triazol-1-yl)-5-fluoro-2-isopropoxynicotinamide]: the pEC50 on human DHODH is 9.30; in the assay on MOLM-13 cells, 9.66.

Consider `CCn1c(CO)nn(-c2nc(O[C@@H](C)C(F)(F)F)c(C(=O)Nc3ccncc3Cl)cc2F)c1=O` [Example 10, (S)-N-(3-Chloropyridin-4-yl)-6-(4-ethyl-3-(hydroxymethyl)-5-oxo-4,5-dihydro-1H-1,2,4-triazol-1-yl)-5-fluoro-2-((1,1,1-trifluoropropan-2-yl)oxy)nicotinamide], for which the pEC50 on human DHODH is 7.64; with MOLM-13 cells it was 7.22.

In the case of `CCn1c(CO)nn(-c2nc(O[C@@H](C)C(F)(F)F)c(C(=O)Nc3cc(C)ccc3F)cc2F)c1=O` [Example 11, (S)-6-(4-Ethyl-3-(hydroxymethyl)-5-oxo-4,5-dihydro-1H-1,2,4-triazol-1-yl)-5-fluoro-N-(2-fluoro-5-methylphenyl)-2-((1,1,1-trifluoropropan-2-yl)oxy)nicotinamide], the negative logarithm of the EC50 (pEC50) is > 8.77 on human DHODH and 9.30 with MOLM-13 cells.

For the compound `CCn1c(CO)nn(-c2nc(O[C@@H](C)C(F)(F)F)c(C(=O)Nc3cnsc3)cc2F)c1=O` [Example 12, (S)-6-(4-Ethyl-3-(hydroxymethyl)-5-oxo-4,5-dihydro-1H-1,2,4-triazol-1-yl)-5-fluoro-N-(isothiazol-4-yl)-2-((1,1,1-trifluoropropan-2-yl)oxy)nicotinamide], the negative-log EC50 (pEC50) was 6.49 on human DHODH and 6.17 in the assay with MOLM-13 cells.

For the compound `CCn1c(CO)nn(-c2nc(O[C@@H](C)C(F)(F)F)c(C(=O)Nc3c(C)ccnc3C(F)F)cc2F)c1=O` [Example 13, (S)-N-(2-(Difluoromethyl)-4-methylpyridin-3-yl)-6-(4-ethyl-3-(hydroxymethyl)-5-oxo-4,5-dihydro-1H-1,2,4-triazol-1-yl)-5-fluoro-2-((1,1,1-trifluoropropan-2-yl)oxy)nicotinamide], the negative-log EC50 (pEC50) at human DHODH is 8.66; in the assay on MOLM-13 cells, 8.48.

Consider `CCn1c(COC)nn(-c2nc(O[C@@H](C)C(F)(F)F)c(C(=O)Nc3c(F)cccc3Cl)cc2F)c1=O` [Example 14, (S)-N-(2-Chloro-6-fluorophenyl)-6-(4-ethyl-3-(methoxymethyl)-5-oxo-4,5-dihydro-1H-1,2,4-triazol-1-yl)-5-fluoro-2-((1,1,1-trifluoropropan-2-yl)oxy)nicotinamide], for which the negative-log EC50 (pEC50) was > 8.77 at human DHODH and 9.70 in the assay on MOLM-13 cells.

Consider `CCn1c(CO)nn(-c2nc(O[C@@H](C)C(F)(F)F)c(C(=O)Nc3cnsc3Br)cc2F)c1=O` [Example 15, (S)-N-(5-Bromoisothiazol-4-yl)-6-(4-ethyl-3-(hydroxymethyl)-5-oxo-4,5-dihydro-1H-1,2,4-triazol-1-yl)-5-fluoro-2-((1,1,1-trifluoropropan-2-yl)oxy)nicotinamide], for which the pEC50 was 8.51 at human DHODH and 8.60 with MOLM-13 cells.

Consider `CCn1c(CO)nn(-c2nc(O[C@@H](C)C(F)(F)F)c(C(=O)Nc3ccnnc3Cl)cc2F)c1=O` [Example 16, (S)-N-(3-Chloropyridazin-4-yl)-6-(4-ethyl-3-(hydroxymethyl)-5-oxo-4,5-dihydro-1H-1,2,4-triazol-1-yl)-5-fluoro-2-((1,1,1-trifluoropropan-2-yl)oxy)nicotinamide], for which the negative logarithm of the EC50 (pEC50) on human DHODH is 6.13; with MOLM-13 cells it was < 6.00.

In the case of `CCn1c(CO)nn(-c2nc(O[C@@H](C)C(F)(F)F)c(C(=O)Nc3csnc3C)cc2F)c1=O` [Example 17, (S)-6-(4-Ethyl-3-(hydroxymethyl)-5-oxo-4,5-dihydro-1H-1,2,4-triazol-1-yl)-5-fluoro-N-(3-methylisothiazol-4-yl)-2-((1,1,1-trifluoropropan-2-yl)oxy)nicotinamide], the negative-log EC50 (pEC50) on human DHODH is 7.51; with MOLM-13 cells, 7.06.

On to `CCn1c(CO)nn(-c2nc(O[C@@H](C)C(F)(F)F)c(C(=O)Nc3c(C)ccnc3C)cc2F)c1=O` [Example 18, (S)-N-(2,4-Dimethylpyridin-3-yl)-6-(4-ethyl-3-(hydroxymethyl)-5-oxo-4,5-dihydro-1H-1,2,4-triazol-1-yl)-5-fluoro-2-((1,1,1-trifluoropropan-2-yl)oxy)nicotinamide], for which the pEC50 at human DHODH was 8.43; in the assay with MOLM-13 cells, 7.89.

In the case of `CCn1c(CO)nn(-c2nc(O[C@@H](C)C(F)(F)F)c(C(=O)Nc3nccnc3Cl)cc2F)c1=O` [Example 19, (S)-N-(3-Chloropyrazin-2-yl)-6-(4-ethyl-3-(hydroxymethyl)-5-oxo-4,5-dihydro-1H-1,2,4-triazol-1-yl)-5-fluoro-2-((1,1,1-trifluoropropan-2-yl)oxy)nicotinamide], the figures for the negative-log EC50 (pEC50) at human DHODH and with MOLM-13 cells were 7.39 and 7.29, respectively.

Turning to `CCn1c(CO)nn(-c2nc(O[C@@H](C)C(F)(F)F)c(C(=O)Nc3cc[nH]c(=O)c3Cl)cc2F)c1=O` [Example 20, (S)-N-(3-Chloro-2-oxo-1,2-dihydropyridin-4-yl)-6-(4-ethyl-3-(hydroxymethyl)-5-oxo-4,5-dihydro-1H-1,2,4-triazol-1-yl)-5-fluoro-2-((1,1,1-trifluoropropan-2-yl)oxy)nicotinamide], the pEC50 on human DHODH is 8.37; in the assay with MOLM-13 cells, 6.97.
